In patent US20090088380A1, “GHRH ANALOGS AND THERAPEUTIC USES THEREOF” (priority 2007, published 2009):
Values joined by “and” are separate entries in the source; they are usually repeats but may differ in a detail not shown here. Equal entries are not always repeated. Non-standard residues stand in square brackets, D forms with d. Residues, ends and D or L forms follow the SMILES beside them.

What was measured:
[1] = In vitro proteolysis assay in human serum; format: in vitro ADME
Procedure: Proteolysis was stopped by adding 800 μl of ice-cold stop buffer (potassium-phosphate buffer, acidified to pH 0.8 with trifluoroacetic acid (TFA) and boiling 5 min (rat serum only). After centrifugation (12000 g, 5 min, 4° C.) (rat serum only), serum-peptide mixtures were passed through a conditioned Sep-Pak C-18 cartridge to extract native GHRH or a GHRH analog residual concentrations from serum proteins. The native GHRH or the analog was eluted in 2 ml of 50% acetonitrile-0.01% TFA/50% 0.01% aqueous TFA. 200 μl of extracted peptide, representing 1 μg of GHRH or analog at time 0, was quantified by analytical HPLC, using one μ-Bondapak C18 column (10 μm particle size, 0.39×15 cm) (rat serum) or two C18 columns in series (human serum and plasma) and a binary solvent system composed of NaClO4 0.01 M, pH 2.5 and acetonitrile. A linear gradient from 30 to 60% acetonitrile over 45 min (rat serum) or 30 to 50% (human serum and plasma) was used. Elution of intact peptide was monitored at 214 nm and residual concentration determined by assessment of peak surface areas.

[2] = system: GH and IGF-1 secretion; experiment: Phase I/II study in healthy male volunteers: GH and IGF-1 secretion; format: in vivo, human
Excerpt: The primary objectives of the Phase I/II study were to assess safety and tolerability of escalating doses of the GHRH(1-29)NH2 synthetic analog (Maximal Tolerated Dose—MTD) and to determine the minimal effective dose (MED) of the GHRH(1-29)NH2 synthetic analog in terms of stimulation of GH and IGF-1 secretion. The secondary objectives were to establish the lowest dose of the GHRH(1-29)NH2 synthetic analog that induces maximal response with a single subcutaneous administration into healthy male volunteers, to determine the MED for subsequent studies and to establish the most representative blood sampling time for evaluation of GH secretion profile after GHRH(1-29)NH2 synthetic analog administration to be used in subsequent studies.
It was a crossover single-blinded Phase I/II trial of escalating doses of the GHRH(1-29)NH2 synthetic analog controlled versus placebo. Ten healthy middle-aged male volunteers, between 50 and 55 years old, were recruited. All 10 subjects received a single subcutaneous dose of the GHRH(1-29)NH2 synthetic analog (reconstituted in water for injection), per day for 5 days, in a dose range from 5 to 25 μg/kg of body weight (lower than the maximal dose used to treat GH deficiency in children, which was 30 μg/kg of body weight).
Each volunteer was hospitalized for 6 days. All volunteers were randomized into 5 groups (2 volunteers per group). During the first 24 hours of hospitalization (Day 0), scheduled blood samples were obtained for GH and IGF-1 assessment (GH and IGF-1 baseline sampling) and then from Day 1 until Day 5, following each GHRH(1-29)NH2 synthetic analog or placebo dose administration, according to the established randomization plan.
Once the volunteers were considered eligible, they were hospitalized for a period of 5 consecutive days. On Day 0 of admission successive samples of blood were taken to perform the basal secretion profile of GH during 24 hours. During 5-day hospitalization period, after the initial blood sampling to determine fasting glucose level, the appropriate dose of the GHRH(1-29)NH2 synthetic analog or placebo was administered and multiple samplings were performed to assess the profile of GH, postprandial glucose level and electrocardiogram after 60 minutes of the application of the GHRH(1-29)NH2 synthetic analog/placebo. Eight hours after drug administration, samples were obtained to determine IGF-1 level, thyroid hormones and routine analysis. After 30 days of admission, all the volunteers returned for new clinical evaluation to record any adverse events that could have occurred from the last day of hospitalization period and to take a blood sample for later determination of anti-GHRH(1-29)NH2 synthetic analog antibodies.
Serum human GH was measured by using a commercial DSL-1900 ACTIVE® Human Growth Hormone Coated-Tube Immunoradiometric Assay Kit purchased from Diagnostic Systems Laboratories, Inc., Texas, USA. Serum IGF-1 was measured using DSL-9400 ACTIVE® Free Insulin-Like Growth Factor-I Coated-Tube IRMA Kit purchased from Diagnostic Systems Laboratories.
To determine MED, GH secretion curves were drawn and the area under the curve (AUC) calculated for each study drug dose.

[3] = system: malnourished subjects with CKD; experiment: Phase II CKD: biochemical markers of nutritional and metabolic state (plasma proteins, glucose control, lipids); format: in vivo, human
Procedure: Plasma proteins were measured as markers for renal disease and malnourishment. Blood samples were analysed locally. Albumin (g/L) were measured at screening, baseline and on Day 28. Blood samples for measurement of pre-albumin (g/L) were collected at baseline, Day 14 and Day 28. Transferrin (g/L) was measured at baseline, Day 7, Day 14 and Day 28.
HbA1c (%) was measured at screening and Day 28 as a marker for long-term glucose control. Fasting insulin (μunits/mL) and fasting glucose (mmol/L) were measured at baseline, Day 7, Day 14 and Day 28 as markers for short-term glucose control.
Fasting triglyceride (mmol/L) and fasting cholesterol (mmol/L) were measured at baseline, Day 7, Day 14 and Day 28 as markers for lipid metabolism.

[4] = system: malnourished subjects with CKD; experiment: Phase II CKD: 24-hour urine collection, creatinine and urea clearance, GFR, PNA; format: in vivo, human; conditions: for Creatinine (24-hour urine): mean (SD) / Creatinine clearance: median / GFR: median / Urea (24-hour urine): mean (SD) / Urea clearance: mean (SD) / nPNA: mean (SD): ITT population
Procedure: Subjects collected 24-hour urine samples at screening, baseline (Days 0 to 1) and Days 28 to 29. All of the samples were analysed for creatinine and urea clearance (mL/min). The samples collected at baseline and on Day 28 were also analysed for proteinuria (Coumassie method), PNA, sodium, potassium, chloride, calcium and phosphate. GFR was calculated using the Cockcroft-Gault formula: […]

[5] = GHRH vs placebo, Day 28, ANOVA for repeated measures

CC[C@H](C)[C@H](NC(=O)[C@H](C)NC(=O)[C@H](CC(=O)O)NC(=O)[C@@H](C)NC(=O)[C@@H](N)Cc1ccc(O)cc1)C(=O)N[C@@H](Cc1ccccc1)C(=O)N[C@H](C(=O)N[C@@H](CC(N)=O)C(=O)N[C@@H](CO)C(=O)N[C@H](Cc1ccc(O)cc1)C(=O)N[C@@H](CCCNC(=N)N)C(=O)N[C@@H](CCCCN)C(=O)N[C@H](C(=O)N[C@@H](CC(C)C)C(=O)N[C@H](C)C(=O)N[C@@H](CCC(N)=O)C(=O)N[C@@H](CC(C)C)C(=O)N[C@@H](CO)C(=O)N[C@@H](C)C(=O)N[C@@H](CCCNC(=N)N)C(=O)N[C@@H](CCCCN)C(=O)N[C@@H](CCCCN)C(=O)N[C@@H](CC(C)C)C(=O)N[C@@H](CCC(N)=O)C(=O)N[C@@H](CC(=O)O)C(=O)N[C@H](C(=O)N[C@@H](CCSC)C(=O)N[C@@H](CO)C(=O)N[C@@H](CCCNC(=N)N)C(N)=O)[C@@H](C)CC)C(C)C)[C@@H](C)O [GHRH analog #5, [D-Ala^2, D-Tyr^10, D-Ala^15, Lys^22] hGHRH(1-29)-NH2] (H-Y[dA]DAIFTNS[dY]RKVL[dA]QLSARKKLQDIMSR-NH2)
R2 (60 min) ([1]; 60-min incubation in human serum): 1.55 ± 0.04
R2 (180 min) ([1]; 180-min incubation in human serum): 2.93 ± 0.87
Mean residual amount (%) ([1]; human serum, IT 0 min): 100%
AUC of GH level in the first 12 hours ([2]; 5 μg/kg body weight): 61.76
AUC of GH level in the first 12 hours ([2]; 10 μg/kg body weight): 71.25
AUC of GH level in the first 12 hours ([2]; 15 μg/kg body weight): 135.17
AUC of GH level in the first 12 hours ([2]; 25 μg/kg body weight): 149.48
IGF-1 mean level ([2]; Day 1 of treatment): 156 ng/mL
IGF-1 mean level ([2]; Day 5 of treatment): 231 ng/mL
GH levels compared to placebo ([2]; any dose): unequivocally higher at any dose
Fasting cholesterol: mean difference (GHRH-Placebo) ([3]; ITT): −0.58
Albumin: median ([3]; ITT, Baseline): 41.0 g/L
Fasting glucose: median ([3]; ITT, Baseline): 5.1 mmol/L
Fasting insulin: median ([3]; ITT, Baseline): 8.4 μ units/mL
Fasting triglycerides: median ([3]; ITT, Baseline): 1.40 mmol/L
Pre-albumin: mean (SD) ([3]; ITT, Baseline): 0.216 (0.088) g/L
Transferrin: mean (SD) ([3]; ITT, Baseline): 2.202 (0.315) g/L
Albumin: median ([3]; ITT, Day 28): 40.4 g/L
Fasting glucose: median ([3]; ITT, Day 28): 5.4 mmol/L
Fasting insulin: median ([3]; ITT, Day 28): 12.1 μ units/mL
Fasting triglycerides: median ([3]; ITT, Day 28): 1.98 mmol/L
HbA1c: median ([3]; ITT, Day 28): 5.606%
Pre-albumin: mean (SD) ([3]; ITT, Day 28): 0.201 (0.103) g/L
Transferrin: mean (SD) ([3]; ITT, Day 28): 2.383 (0.370) g/L
Fasting cholesterol: median ([3]; ITT, Day 28, listed as GHRH(1-29)NH2 synthetic analog): 4.69 mmol/L
HbA1c: median ([3]; ITT, Screening): 5.516%
Fasting glucose: ratio of means ([3]; ITT, vs placebo): 1.030
Fasting insulin: ratio of means ([3]; ITT, vs placebo): 1.79 and 1.788
Fasting triglycerides: ratio of means ([3]; ITT, vs placebo): 1.199
Pre-albumin: comparison or ratio of means ([3]; ITT, vs placebo): −0.093
Transferrin: comparison or ratio of means ([3]; ITT, vs placebo): 0.06
Fasting insulin: median ([3]; day 7): 14.2 μunits/ml
Fasting insulin: median ([3]; day 14): 15.5 μunits/ml
Reduction of mean cholesterol in almost all patients (10/12) ([3]; in vivo): up to 10%
Creatinine (24-hour urine): mean (SD) ([4]; Baseline): 10.44 (5.10) mmol/24 hours
Creatinine clearance: median ([4]; Baseline): 24.92 mL/min/1.73 m^−2
GFR: median ([4]; Baseline): 19.37 ml/min/1.73 m^−2
Urea (24-hour urine): mean (SD) ([4]; Baseline): 343.53 (170.39) mmol/24 hours
Urea clearance: mean (SD) ([4]; Baseline): 11.858 (5.820) mL/min/1.73 m^−2
nPNA: mean (SD) ([4]; Baseline): 2.3648 (1.1530) g/kg body weight/24 h
Mean urea clearance rate ([4]; Day 28): 11.24 mL/min/1.73 m^−2
Median GFR ([4]; Day 28): 18.23 mL/min/1.73 m^−2
Median creatinine clearance ([4]; Day 28): 23.78 mL/min/1.73 m^−2
Creatinine (24-hour urine): mean (SD) ([4]; Day 28): 9.68 (3.29) mmol/24 hours
Creatinine clearance: median ([4]; Day 28): 23.78 mL/min/1.73 m^−2
GFR: median ([4]; Day 28): 18.23 ml/min/1.73 m^−2
Urea (24-hour urine): mean (SD) ([4]; Day 28): 235.87 (88.51) mmol/24 hours
Urea clearance: mean (SD) ([4]; Day 28): 11.244 (4.200) mL/min/1.73 m^−2
nPNA: mean (SD) ([4]; Day 28): 1.6198 (0.5892) g/kg body weight/24 h
Urea clearance: adjusted difference or comparison [4, 5]: 2.28 mL/min/1.73 m^−2
nPNA: adjusted difference or comparison [4, 5]: −0.553 g/kg body weight/24 h
nPNA: mean value ([4]; after decrease (day 28)): 1.6198 g/kg body weight/24 h
Mean urea clearance rate ([4]; baseline): 11.86 mL/min/1.73 m^−2
Median GFR ([4]; baseline): 19.37 mL/min/1.73 m^−2
Median creatinine clearance ([4]; baseline): 24.92 mL/min/1.73 m^−2
nPNA: mean value ([4]; before decrease (baseline)): 2.3648 g/kg body weight/24 h
Urea clearance: adjusted mean difference between GHRH and placebo arm ([4]; day 28): 2.28 ml/min/1.73 m^2
nPNA: adjusted mean difference between GHRH and placebo arm ([4]; day 28): −0.553 g/kg body weight/24 h
GFR: improvement against baseline, one patient ([4]; one patient): 78.56%
Creatinine clearance: improvement against baseline, individual patients ([4]; two patients): 124.63% and 115.65%
Urea clearance: improvement against baseline, individual patients ([4]; two patients, listed as GHRH(1-29)NH2 synthetic analog): 123.99% and 103.49%
